Laboratory results published in patent publication US20230210154A1, “SWEET PROTEIN MUTANTS FROM TRUFFLE” (MYCOTECHNOLOGY, INC., priority 2021, published 2023).
pEC50: −log10 of the molar value. Where two headings read alike, the source gives them in different places. Residues, ends and D or L forms follow the SMILES beside them.

Assays:
sweet taste [1] = assay: Concentration-response functions for sweet taste (Opertech Bio); assay type: in vivo; details: for Relative to Sucrose (mM): equivalency to sucrose on a molar basis; for Relative to Sucrose (mg/ml): equivalency to sucrose on a weight basis; for pEC50 / EC50: half-maximal sweet taste response; for pEC50: non-linear regression, read-out: EC50 (molar units); for EC50: read-out: EC50
Experimental: Opertech Bio (Philadelphia, Pa.) performed a quantitative characterization of the concentration-dependence of the taste properties of the purified his-tagged mycodulcein (SEQ ID NO:21) obtained from E. coli as described in Example 5 and purified as described in Example 4. The sweet-taste potency and relative efficacy of mycodulcein was compared with sucrose and with other sweeteners thaumatin, rebaudioside A, and aspartame. Control standards were solutions of 200 mM sucrose, 100 mM NaCl, 0.5 mM quinine, and 10 mM citric acid. […] Each data point in the curves for mycodulcein, aspartame, thaumatin, rebaudioside A was calculated as the average across 32 replicates and averaged across 16 replicates for the sucrose curve; error bars are SEM. Points for water and sucrose controls were similarly calculated as the average across 128 and 64 replicates, respectively. Curves were fit by non-linear regression.
The concentrations that elicit half-maximal sweet taste response (EC50s, or potencies) were derived from the nonlinear regression. […] Also provided are the equivalencies to sucrose on a molar basis and on a weight basis.

sweet taste [2] = assay: CATA time intensity of the sweet sensation, trained panel; assay type: in vivo, human
Experimental: Evaluation of thaumatin, sucrose, and SEQ ID NO:21 was carried out using a CATA (click all that apply) time intensity of the sweet sensation of named analytes in water at 0.045 mg/ml for proteins and 10% sucrose. Methodology: Time Intensity Technique; Data collection software: EyeQuestion, responses recorded every 2.57 seconds; Scaling Method: a 15-point sweet scale, e.g. score 5=5% sucrose, score 10=10% sucrose; Evaluation Protocol: small volume sip, tilt and spit test. There were 3-6 panelists and 2 replicates. All samples were blinded and presented with randomized 3-digit codes. Training Strategies: An intense training on sweet scale over 6 weeks on 15-point sweet scale to confidently assign sweet values. Due to unique sweet behavioral patterns, it is necessary to train time intensity principles over 3 weeks. Samples were tasted with a stopwatch to note times and help reach a consensus. # of Panelists: 3-6, # of replications: 2. All samples were blinded and presented with randomized 3-digit codes. Statistical analysis: due to the small # of panelists, a statistical analysis cannot be performed.

COC(=O)[C@H](Cc1ccccc1)NC(=O)[C@@H](N)CC(=O)O [aspartame] (H-Asp-Phe-OMe)
Relative to Sucrose (mM) (sweet taste [1]): 198 | Relative to Sucrose (mg/ml) (sweet taste [1]): 231 | pEC50 (sweet taste [1]): 3.74 | EC50 (sweet taste [1]): 53.2 µg/mL

OC[C@H]1O[C@@](CO)(O[C@H]2O[C@H](CO)[C@@H](O)[C@H](O)[C@H]2O)[C@@H](O)[C@@H]1O [sucrose]
Relative to Sucrose (mM) (sweet taste [1]): 1 | Relative to Sucrose (mg/ml) (sweet taste [1]): 1 | pEC50 (sweet taste [1]): 1.44 | EC50 (sweet taste [1]): 12300 µg/mL | time to approach threshold sweetness (Intensity <1) (sweet taste [2]; 10% sucrose in water): 162 s

thaumatin
maximum intensity (Imax) higher than sucrose (sweet taste [2]; 15 point scale, proteins 0.045 mg/ml in water vs 10% sucrose): approximately 1 point
